Where a name gives a salt, the structure may show the parent alone.
Assays:
[1] = target: T1, SHIP2 immunoprecipitated from the lysates of podocytes (Homo sapiens, UniProt O15357); experiment: Activity of SHIP2 immunoprecipitated from podocytes; format: cell-based; details: 20–24 h
T1 construct: endogenous in cells; host or cells: immortalized human podocytes
T1 sequence (O15357 1-1258): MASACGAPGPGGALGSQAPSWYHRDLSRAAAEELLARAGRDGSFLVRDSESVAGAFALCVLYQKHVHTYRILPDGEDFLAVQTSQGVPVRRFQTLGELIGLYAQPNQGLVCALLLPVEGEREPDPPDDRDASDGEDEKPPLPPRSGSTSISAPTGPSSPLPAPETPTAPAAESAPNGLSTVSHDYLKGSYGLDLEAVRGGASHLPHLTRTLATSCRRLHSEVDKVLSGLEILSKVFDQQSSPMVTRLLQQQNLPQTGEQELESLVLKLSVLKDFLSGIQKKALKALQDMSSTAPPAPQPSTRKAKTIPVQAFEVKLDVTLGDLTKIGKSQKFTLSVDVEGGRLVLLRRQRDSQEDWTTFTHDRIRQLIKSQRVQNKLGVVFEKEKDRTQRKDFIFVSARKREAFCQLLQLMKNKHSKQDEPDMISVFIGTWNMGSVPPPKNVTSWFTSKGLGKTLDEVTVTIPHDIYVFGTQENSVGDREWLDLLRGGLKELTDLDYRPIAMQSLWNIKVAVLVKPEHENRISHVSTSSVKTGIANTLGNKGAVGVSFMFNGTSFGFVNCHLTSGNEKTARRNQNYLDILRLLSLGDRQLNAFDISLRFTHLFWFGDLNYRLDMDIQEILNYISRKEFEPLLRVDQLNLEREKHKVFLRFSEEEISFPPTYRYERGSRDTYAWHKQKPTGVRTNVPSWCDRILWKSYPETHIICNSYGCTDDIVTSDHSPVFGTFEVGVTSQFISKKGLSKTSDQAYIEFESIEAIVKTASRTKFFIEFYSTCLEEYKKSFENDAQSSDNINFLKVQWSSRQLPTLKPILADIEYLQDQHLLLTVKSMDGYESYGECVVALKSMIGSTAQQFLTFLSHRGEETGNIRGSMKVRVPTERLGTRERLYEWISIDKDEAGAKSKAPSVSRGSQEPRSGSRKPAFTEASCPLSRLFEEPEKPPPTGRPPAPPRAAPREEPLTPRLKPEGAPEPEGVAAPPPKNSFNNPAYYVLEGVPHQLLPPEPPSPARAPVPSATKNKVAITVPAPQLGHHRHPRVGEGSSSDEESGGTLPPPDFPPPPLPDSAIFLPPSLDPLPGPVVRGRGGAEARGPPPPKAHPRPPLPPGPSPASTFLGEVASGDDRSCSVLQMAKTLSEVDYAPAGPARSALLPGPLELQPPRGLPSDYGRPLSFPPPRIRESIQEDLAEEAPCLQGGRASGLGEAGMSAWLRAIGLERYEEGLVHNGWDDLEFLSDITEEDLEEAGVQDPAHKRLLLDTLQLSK
Experimental: Immortalized human podocytes were maintained as previously described ([10]). […] Podocytes were lysed as previously described ([21]).
Recombinant His-tagged human SHIP2 and SHIP1 phosphatase domains were produced as previously described ([17]). […] Immunocomplexes were bound to protein G-Sepharose beads at +4°C for 2 h and washed 3 times with malachite green phosphate assay buffer {10 mM 4-(2-hydroxyethyl)-1-piperazineethanesulfonic acid (HEPES), pH 7.25, 6 mM MgCl2, 0.1% 3-[(3-cholamidopropyl)dimethylammonio]-1-propanesulfonate (CHAPS), 250 mM sucrose, and 0.25 mM EDTA}.
The catalytic activities of the recombinant SHIP2 and SHIP1 phosphatase domains were determined by malachite green phosphate assay at the High Throughput Biomedicine Unit (University of Helsinki) using D-myo-PI(3,4,5)P3 (Echelon Biosciences, Salt Lake City, UT, USA). Different volumes, resulting in desired final concentrations of inhibitors, were transferred to the wells of 384-well plates by using the Echo550 acoustic dispenser (Labcyte, San Jose, CA, USA). Recombinant protein (100 ng) in reaction buffer {10 mM HEPES, pH 7.25, 6 mM MgCl2, 0.1% CHAPS, 250 mM sucrose, and 0.25 mM EDTA} was placed in each well (7.5 µl), and the plates were preincubated at room temperature for 15 min. The phosphatase reaction was started by adding PI(3,4,5)P3 diluted in the reaction buffer (7.5 µl) to each well to reach a final concentration of 100 µM PI(3,4,5)P3 in the 15 µl reaction volume. […] Absorbance was measured at 620 nm using a Pherastar FS plate reader (BMG Labtech, Offenburg, Germany). […] The catalytic activity of SHIP2 immunoprecipitated from cell and tissue lysates was determined as in Saurus et al. ([22]), omitting SHIP2 inhibitors in lysis buffer, immunoprecipitation reaction, wash, and assay buffers. […]
Hydrogen bond is shown in green. […] The catalytic activity of SHIP2 was measured by manual malachite green phosphate assay.

db/db mice = experiment: Metabolic assays in db/db mice; format: in vivo, mouse; details: 250 mg/kg per day, 12 d
Experimental: At the end of the experiment, mice were euthanized.
Insulin tolerance test was performed and blood glucose measured at the indicated times after insulin injection, and the area under the curve (AUC) was calculated (n = 5–6).

reduction of SHIP2 activity in podocytes ([1]; 1 mM) | SMILES | reduction of SHIP2 activity in podocytes ([1]; 20 µM) | effect on body weight (db/db mice) | effect on fasting blood glucose concentrations (db/db mice; 6 h fasting) | effect on urinary albumin excretion (db/db mice; 24 h urine) | insulin tolerance test: fasting blood glucose at 30–120 min after insulin administration (db/db mice; insulin 0.75 U/kg) | insulin tolerance test: glucose area under the curve (db/db mice; insulin 0.75 U/kg)
14% | CN(C)C(=N)N=C(N)N [Metformin, 1,1-Dimethylbiguanide hydrochloride] | 20–30% | no effect | no effect | no effect | reduces | reduces
 | C[C@H](NC(=O)c1sccc1OCc1ccc(Cl)cc1)c1ccccc1 [AS1949490] | 20–30% |  |  |  |  | 
